The text below walks through data of paper PMC7468908 (Nutrients, 2020).

Type in all cases: cell-based
The target of one data set is T1, OATP1A2 (Homo sapiens, UniProt P46721).
T1 construct: host or cells: A431
T1 sequence (P46721 1-670): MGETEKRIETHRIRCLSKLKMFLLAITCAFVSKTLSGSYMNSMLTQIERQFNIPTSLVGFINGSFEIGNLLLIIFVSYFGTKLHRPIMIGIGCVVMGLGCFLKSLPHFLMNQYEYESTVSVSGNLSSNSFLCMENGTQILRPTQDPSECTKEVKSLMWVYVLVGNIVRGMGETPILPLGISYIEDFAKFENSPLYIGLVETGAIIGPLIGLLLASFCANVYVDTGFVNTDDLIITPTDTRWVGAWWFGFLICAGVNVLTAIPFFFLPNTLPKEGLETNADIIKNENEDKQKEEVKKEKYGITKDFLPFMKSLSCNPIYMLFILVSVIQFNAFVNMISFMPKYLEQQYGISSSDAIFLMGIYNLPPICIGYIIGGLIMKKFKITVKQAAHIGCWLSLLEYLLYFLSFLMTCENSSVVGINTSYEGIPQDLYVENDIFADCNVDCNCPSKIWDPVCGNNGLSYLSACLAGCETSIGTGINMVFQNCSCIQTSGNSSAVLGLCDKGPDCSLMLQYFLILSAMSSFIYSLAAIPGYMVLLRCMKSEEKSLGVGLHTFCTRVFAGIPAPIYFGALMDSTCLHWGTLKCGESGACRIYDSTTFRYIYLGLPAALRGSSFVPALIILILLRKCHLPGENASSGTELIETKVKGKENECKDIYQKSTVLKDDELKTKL
Nature of the data set: OATP1A2-mediated sulforhodamine 101 uptake in A431 cells overexpressing OATP1A2. The settings on record: for IC50: A431-OATP1A2 cells. On the procedure:
(§1) A431 cells overexpressing human OATPs, 1A2 (BC042452, HsCD00333163), 1B1 (Gene ID: AB026257), 1B3 (BC141525, HsCD00348132) or 2B1 (BC041095.1, HsCD00378878), or their mock transfected controls, were generated as previously described. Cells were cultured in Dulbecco’s Modified Eagle Medium (DMEM; Thermo Fischer Scientific, Waltham, MA, USA) supplemented with 10% fetal bovine serum, 2 mM L-glutamine, 100 units/mL penicillin and 100 µg/mL streptomycin, at 37 °C with 5% CO2.
(§2) The interaction between flavonoids and OATPs was investigated in an indirect assay employing the fluorescent dye substrates, pyranine and sulforhodamine 101 [51, 52]. Briefly, A431 cell overexpressing OATPs, 1A2, 1B1, 1B3 or 2B1, or their mock transfected controls, were seeded on 96-well plates in a density of 8x10^4 cells/well in 200 μL DMEM one day prior to the transport measurements. […] The reaction was started by the addition of 50 μL uptake buffer containing pyranine in a final concentration of 10 μM (OATP1B1) or 20 μM (OATP1B3 and OATP2B1), or 0.5 μM sulforhodamine 101 (OATP1A2). Thereafter, cells were incubated at 37°C for 15 min (OATP1B1 and OATP2B1), 10 min (OATP1A2), or 30 min (OATP1B3). The reactions were stopped by removing the supernatants, then the cells were washed three times with ice-cold PBS. Fluorescence (in 200 μL PBS/well) was determined employing an Enspire plate reader (Perkin Elmer, Waltham, MA) ex/em: 403/517 nm (pyranine) or 586/605 nm (sulforhodamine 101). OATP-dependent transport was calculated by extracting fluorescence measured in mock transfected cells. Transport activity was calculated based on the fluorescence signal in the absence (100%) of flavonoids. Experiments were repeated at least in three biological replicates. IC50 values were calculated by Hill1 fit, using the Origin Pro8.6 software ([…]).

For another data set, the target named is T2, OATP1B1 (Homo sapiens, UniProt Q9Y6L6).
T2 construct: expressed in transfected cells; host or cells: A431
T2 sequence (Q9Y6L6 1-691): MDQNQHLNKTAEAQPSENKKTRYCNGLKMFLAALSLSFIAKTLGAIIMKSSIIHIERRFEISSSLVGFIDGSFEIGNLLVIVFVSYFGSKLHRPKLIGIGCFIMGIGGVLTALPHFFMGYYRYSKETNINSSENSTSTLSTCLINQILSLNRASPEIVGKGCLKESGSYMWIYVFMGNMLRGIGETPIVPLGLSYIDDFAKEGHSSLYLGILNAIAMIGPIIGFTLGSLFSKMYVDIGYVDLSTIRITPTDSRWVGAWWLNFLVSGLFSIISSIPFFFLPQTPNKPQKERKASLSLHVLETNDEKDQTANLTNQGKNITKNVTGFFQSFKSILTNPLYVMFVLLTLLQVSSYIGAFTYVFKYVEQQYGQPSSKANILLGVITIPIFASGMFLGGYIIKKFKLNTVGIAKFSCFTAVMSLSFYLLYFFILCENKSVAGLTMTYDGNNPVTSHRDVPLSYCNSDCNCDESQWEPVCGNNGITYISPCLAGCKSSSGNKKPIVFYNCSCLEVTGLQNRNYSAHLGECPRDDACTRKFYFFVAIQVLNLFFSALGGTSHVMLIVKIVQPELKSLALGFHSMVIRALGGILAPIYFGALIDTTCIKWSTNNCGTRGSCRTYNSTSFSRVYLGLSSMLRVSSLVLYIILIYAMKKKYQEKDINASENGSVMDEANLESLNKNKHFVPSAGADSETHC
Nature of the data set: OATP1B1-mediated pyranine uptake in A431 cells overexpressing OATP1B1. On the procedure:
as §1, §2

The next data set deals with T3, OATP2B1 (Homo sapiens, UniProt O94956).
T3 construct: host or cells: A431
T3 sequence (O94956 1-709): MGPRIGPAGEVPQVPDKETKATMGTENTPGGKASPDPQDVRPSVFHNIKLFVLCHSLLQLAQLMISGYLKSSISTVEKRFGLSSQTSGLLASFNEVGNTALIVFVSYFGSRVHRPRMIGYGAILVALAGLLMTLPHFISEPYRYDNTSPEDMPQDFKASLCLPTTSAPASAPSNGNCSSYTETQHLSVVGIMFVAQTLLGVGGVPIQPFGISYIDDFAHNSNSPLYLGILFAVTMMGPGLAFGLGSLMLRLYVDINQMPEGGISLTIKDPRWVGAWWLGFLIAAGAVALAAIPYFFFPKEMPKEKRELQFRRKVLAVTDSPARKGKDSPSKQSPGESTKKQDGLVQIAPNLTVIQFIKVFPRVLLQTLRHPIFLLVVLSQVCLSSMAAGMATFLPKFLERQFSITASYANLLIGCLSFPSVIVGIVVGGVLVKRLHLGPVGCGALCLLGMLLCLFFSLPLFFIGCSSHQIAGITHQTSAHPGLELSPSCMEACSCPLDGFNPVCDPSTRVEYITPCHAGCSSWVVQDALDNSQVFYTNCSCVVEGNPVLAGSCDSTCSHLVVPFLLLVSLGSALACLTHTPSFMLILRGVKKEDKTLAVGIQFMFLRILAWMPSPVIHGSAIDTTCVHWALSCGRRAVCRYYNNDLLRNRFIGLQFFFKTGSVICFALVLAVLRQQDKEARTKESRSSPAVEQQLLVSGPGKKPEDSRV
Nature of the data set: OATP2B1-mediated pyranine uptake in A431 cells overexpressing OATP2B1. The settings on record: 15 min; for IC50: A431-OATP2B1 cells. On the procedure:
as §1, §2

[1] abbreviates: 0.5 μM sulforhodamine 101, 10 min.
[2] abbreviates: 0.5 μM sulforhodamine 101, 10 min, read-out: IC50 for OATP1A2.
Where [3] appears, read: 10 μM pyranine, 15 min, A431-OATP1B1 cells, read-out: IC50 for OATP1B1.
Setting [4] is: 20 μM pyranine, read-out: IC50 for OATP2B1.

Values joined by “and” are separate entries in the source; they are usually repeats but may differ in a detail not shown here. Identical values can stand only once. Like-named read-outs stand apart in the source and are kept apart here.

As for `COc1cc(-c2oc3cc(O)cc(O)c3c(=O)c2OC2OC(C(=O)O)C(O)C(O)C2O)ccc1O` (stereo not drawn) [I3G, isorhamnetin-3-glucuronide], the “concentration causing statistically significant (p < 0.01) inhibition, OATP1A2” value at OATP1A2 (setting [1]) amounted to 12.5 µM. Further, the IC50 on OATP1A2 (setting [2]) was over 30 µM; at OATP1B1 (setting [3]), 5.63 µM; on OATP2B1 (setting [4]) it was 4.14 µM. The “concentration causing statistically significant (p < 0.01) inhibition, OATP1B1” value at OATP1B1 (10 μM pyranine, 15 min) was determined as 1600 nM. The “concentration causing statistically significant (p < 0.01) inhibition, OATP2B1” value on OATP2B1 (20 μM pyranine) came to 1.6 µM.
For `COc1cc(-c2oc3cc(O)cc(O)c3c(=O)c2O)ccc1O` [IR, isorhamnetin], the “concentration causing statistically significant (p < 0.01) inhibition, OATP1A2” value on OATP1A2 (setting [1]) came to 3.1 µM. Moreover, the IC50 against OATP1A2 (IC50 for OATP1A2, 0.5 μM sulforhodamine 101, 10 min) is over 30 µM; against OATP1B1, 3.12 µM; at OATP2B1 (IC50 for OATP2B1, 20 μM pyranine), 0.82 µM. Also, the “concentration causing statistically significant (p < 0.01) inhibition, OATP1B1” value on OATP1B1 (10 μM pyranine, 15 min) was 3100 nM. Further, the “concentration causing statistically significant (p < 0.01) inhibition, OATP2B1” value on OATP2B1 (20 μM pyranine) is 0.6 µM.
On to `O=C(O)C1OC(Oc2c(-c3ccc(O)c(O)c3)oc3cc(O)cc(O)c3c2=O)C(O)C(O)C1O` (stereo not drawn) [Q3G, quercetin-3-glucuronide], for which, on OATP1A2 (setting [1]), the “concentration causing statistically significant (p < 0.01) inhibition, OATP1A2” value was determined as 25 µM. The IC50 is over 30 µM on OATP1A2 (setting [2]), 4.05 µM at OATP1B1 (setting [3]) and 4.85 µM at OATP2B1 (setting [4]). The “concentration causing statistically significant (p < 0.01) inhibition, OATP1B1” value on OATP1B1 (10 μM pyranine, 15 min) amounted to 1600 nM. Besides, the “concentration causing statistically significant (p < 0.01) inhibition, OATP2B1” value at OATP2B1 (20 μM pyranine) was 3.1 µM.
For `O=c1c(O)c(-c2ccc(O)c(OS(=O)(=O)O)c2)oc2cc(O)cc(O)c12` [Q3′S, quercetin-3′-sulfate], the “concentration causing statistically significant (p < 0.01) inhibition, OATP1A2” value at OATP1A2 (setting [1]) was 0.8 µM. In addition, the IC50 on OATP1A2 (setting [2]) was 4.9 µM and 4.92 µM; at OATP1B1 (setting [3]), 0.33 µM; on OATP2B1 (setting [4]), 0.43 µM. For the same molecule, at OATP1B1 (10 μM pyranine, 15 min), the “concentration causing statistically significant (p < 0.01) inhibition, OATP1B1” value came to 300 nM. Besides, the “concentration causing statistically significant (p < 0.01) inhibition, OATP2B1” value on OATP2B1 (20 μM pyranine) worked out at 0.3 µM.
Turning to `O=c1c(O)c(-c2ccc(O)c(O)c2)oc2cc(O)cc(O)c12` [Q, quercetin], the “concentration causing statistically significant (p < 0.01) inhibition, OATP1A2” value on OATP1A2 (setting [1]) is 3.1 µM. The IC50 was 10.1 µM on OATP1A2 (setting [2]), 1.55 µM on OATP1B1 (setting [3]) and 0.34 µM at OATP2B1 (setting [4]). Moreover, on OATP1B1 (10 μM pyranine, 15 min), the “concentration causing statistically significant (p < 0.01) inhibition, OATP1B1” value came to 1300 nM. The “concentration causing statistically significant (p < 0.01) inhibition, OATP2B1” value at OATP2B1 (20 μM pyranine) was determined as 0.3 µM.
